In patent publication US7351731B2, “Azole derivatives and methods for making the same” (Board of Governors for Higher Education, State of Rhode …, priority 2005, dated 2008):
Converted amounts (≈) assume the structure as drawn.

Key:
C. albicans ATCC 14053 [1] = assay: MIC microdilution susceptibility testing, C. albicans in RPMI; type: cell-based, Candida albicans; conditions: RPMI medium pH 6.9, 35-37° C., 24-48 h, average of three experiments; for MIC: Candida albicans, ATCC14053, read-out: MIC C. albicans ATCC 14053, RPMI
Procedure: (§1) Microorganisnis. […] Stock cultures were kept on Sabouraud dextrose agar (SDA; Becton-Dickinson and Co., Sparks, Md.). Subcultures were prepared on SDA at 35-37° C. Suspension cultures were prepared by inoculation of single colonies in 7 ml of normal saline solution.
(§2) Test compounds were dissolved in DMSO (0.56 mg/ml) and stored at 0° C. Working dilutions were made in RPMI or SDB medium. […] The final maximum concentration of DMSO in the assays was 5% (v/v).
(§3) Microdilutions for control experiments with C. albicans, A. niger, and C. neoformans were the modified method of National Committee for Clinical Laboratory Standards (NCCLS) method as described by Galgiani and by the more recent NCCLS M27-A microdilution methods as described previously. Galgiani, J. N. Antimicrob. Agents Chemother. […] Reference method for broth dilution antifungal susceptibility testing for yeasts. Approval standard. […] 9; C. arballeira, N. M., et al. Arch. Pharm.-Pharm. […] Dilutions were prepared in 0.1 ml of RPMI or SDB; the inocula were either 10^4 C. albicans or C. neoformans cells or A. niger spores. The tubes were incubated for 24-48 h at 36±1° C., and turbidity was read visually.

C. albicans ATCC 14053 [2] = assay: MIC microdilution susceptibility testing, C. albicans in SDB; type: cell-based, Candida albicans; conditions: for fold more active than FLC against C. albicans in SDB: MIC ratio to FLC; for MIC C. albicans ATCC 14053, SDB: SDB medium pH 5.6, 35-37° C.; for MIC C. albicans ATCC 14053, SDB / MIC: 24-48 h, average of three experiments; for fold less antifungal activity against C. albicans in SDB than in RPMI: SDB versus RPMI; for MIC: Candida albicans, ATCC14053, pH 5.6, SDB medium pH 5.6, 35-37° C.
Procedure: as §1, §2, §3

A. niger ATCC 16404 = assay: MIC microdilution susceptibility testing, A. niger in SDB; type: cell-based, Aspergillus niger; conditions: for fold more potent than FLC against A. niger: MIC ratio to FLC, SDB
Procedure: as §1, §2, §3

C. albicans ATCC 14053 [3] = assay: Interaction studies (FIC index) against C. albicans in SDB; type: cell-based, Candida albicans; conditions: for FIC index: mixed with FLC, C. albicans ATCC 14053, SDB
Source text: . Fractional Inhibitory Concentration (FIC) index [FICindex=FICA+FICB] calculation was used to determine synergism between different components of the synthesized compounds while administered separately, where FICA or FICB equals to MIC of compounds A or B in combination divided by MIC of drug A or B alone. If the FIC index is ≦0.5, the combination is synergistic. […]

C. neoformans ATCC 66031 = assay: MIC microdilution susceptibility testing, C. neoformans in SDB; type: cell-based, Cryptococcus neoformans; conditions: SDB medium, 35-37° C., 24-48 h, average of three experiments; for MIC: Cryptococcus neoformans, ATCC66031
Procedure: as §1, §2, §3

[4] = SDB medium, 35-37° C., 24-48 h, average of three experiments

| MIC (C. albicans ATCC 14053 [1]) | MIC (C. albicans ATCC 14053 [2]) | MIC (C. neoformans ATCC 66031) | MIC (A. niger ATCC 16404; Aspergillus niger, ATCC16404, SDB medium, 35-37° C., 24-48 h, average of three experiments) | Structure (SMILES) | MIC C. albicans ATCC 14053, RPMI (C. albicans ATCC 14053 [1]) | fold more active than FLC against C. albicans in SDB (C. albicans ATCC 14053 [2]) | MIC C. albicans ATCC 14053, SDB (C. albicans ATCC 14053 [2]) | fold less antifungal activity against C. albicans in SDB than in RPMI (C. albicans ATCC 14053 [2]) | fold more potent than FLC against A. niger (A. niger ATCC 16404) | MIC A. niger ATCC 16404, SDB (A. niger ATCC 16404; [4]) | FIC index (C. albicans ATCC 14053 [3]) | MIC C. neoformans ATCC 66031, SDB (C. neoformans ATCC 66031) | fold less antifungal inhibition than 1g used alone (C. albicans ATCC 14053 [3]; mixture with FLC, C. albicans, SDB) |
| --- | --- | --- | --- | --- | --- | --- | --- | --- | --- | --- | --- | --- | --- |
|  |  |  |  | O=C(CCCCCCCCCCBr)OC(Cn1cncn1)(Cn1cncn1)c1ccc(F)cc1F [Compound 1j, O-11-Bromoundecanoylfluconazole] | 12 µg/mL (≈ 21.7 µM) | ≥ 22 fold | 198 µg/mL (≈ 358 µM) | 17 fold | ≥ 1.5 fold | 395 µg/mL (≈ 714 µM) | 1.04 |  |  |
|  |  |  |  | CCCCCCC(Br)C(=O)OC(Cn1cncn1)(Cn1cncn1)c1ccc(F)cc1F (stereo not drawn) [Compound 1g, O-2-Bromooctanoylfluconazole] |  | at least 40 fold | 111 µg/mL (≈ 217 µM) | 8 fold | at least 5.2 fold | 111 µg/mL (≈ 217 µM) | 1.05 | 14 µg/mL (≈ 27.4 µM) |  |
| 371 µg/mL (≈ 1400 µM) | 185 µg/mL (≈ 698 µM) | 23 µg/mL (≈ 86.7 µM) | 93 µg/mL (≈ 351 µM) | O=C(O)CCCCCCCCCCBr [11-Bromoundecanoic acid, reference compound] |  |  |  |  |  |  | 0.52 |  |  |
| 865 µg/mL (≈ 3880 µM) | 865 µg/mL (≈ 3880 µM) | 433 µg/mL (≈ 1940 µM) |  | CCCCCCC(Br)C(=O)O (stereo not drawn) [2-Bromooctanoic acid, reference compound] |  |  |  |  |  |  | 0.30 |  | approximately 2 fold |
